Measurements from the supplement of paper PMC10307832.

Assays:
Assay in all cases: relative viability (nuclei count vs DMSO), 5 days (fraction); higher = more cells survive
[1] = system: 201T
Summary of the method: (§1)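 Medians of duplicate plates are given as relative viability. That measure is the nuclei count in treated wells divided by the count in vehicle wells. Counts were taken on 4× images of lung cancer cell lines in 1536-well plates, 5 days after pin-tool dosing the day after seeding with one drug alone or a fixed anchor-drug dose plus five library-drug doses (not always all listed) in √10 steps.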

[2] = system: A-427
Summary of the method: as §1

[3] = system: COR-L23
Summary of the method: as §1

[4] = system: H3255
Summary of the method: as §1

[5] = system: HCC-44
Summary of the method: as §1

[6] = system: LC-2-ad
Summary of the method: as §1

[7] = system: LCLC-103H
Summary of the method: as §1

[8] = system: LCLC-97TM1
Summary of the method: as §1

[9] = system: LK-2
Summary of the method: as §1

[10] = system: LU99A
Summary of the method: as §1

[11] = system: NCI-H1563
Summary of the method: as §1

[12] = system: NCI-H1650
Summary of the method: as §1

[13] = system: NCI-H1793
Summary of the method: as §1

[14] = system: NCI-H2228
Summary of the method: as §1

[15] = system: NCI-H2347
Summary of the method: as §1

[16] = system: NCI-H23
Summary of the method: as §1

[17] = system: NCI-H460
Summary of the method: as §1

[18] = system: NCI-H596
Summary of the method: as §1

[19] = system: NCI-H727
Summary of the method: as §1

[20] = system: PC-14
Summary of the method: as §1

[21] = system: SW 1573
Summary of the method: as §1

[22] = system: SW 900
Summary of the method: as §1

`CC(=O)O[C@@]12CO[C@@H]1C[C@H](O)[C@@]1(C)C(=O)[C@H](O)C3=C(C)[C@@H](OC(=O)[C@H](O)[C@@H](NC(=O)OC(C)(C)C)c4ccccc4)C[C@@](O)([C@@H](OC(=O)c4ccccc4)[C@H]21)C3(C)C` [Docetaxel] + COc1cccc2cc(-c3nc([C@H]4CC[C@H](C(=O)O)CC4)n4ncnc(N)c34)[nH]c12 [OSI-027] (partner 0.5 µM) gave a relative viability ([1]; first compound 0.0002 µM) of 0.528, a relative viability ([1]; first compound 0.000632 µM) of 0.442 and a relative viability ([1]; first compound 0.002 µM) of 0.258. It also gave a relative viability ([1]; first compound 0.006325 µM) of 0.132, a relative viability ([1]; first compound 0.02 µM) of 0.0963 and a relative viability ([2]; first compound 0.0002 µM) of 0.465. For the same compound, the relative viability ([2]; first compound 0.000632 µM) was 0.435, the relative viability ([2]; first compound 0.002 µM) was 0.224 and the relative viability ([2]; first compound 0.006325 µM) was 0.235. The relative viability ([2]; first compound 0.02 µM) was 0.155, the relative viability ([3]; first compound 0.0002 µM) was 0.715 and the relative viability ([3]; first compound 0.000632 µM) was 0.689. It also gave a relative viability ([3]; first compound 0.002 µM) of 0.444, a relative viability ([3]; first compound 0.006325 µM) of 0.147 and a relative viability ([3]; first compound 0.02 µM) of 0.116. For the same compound, the relative viability ([4]; first compound 0.0002 µM) was 0.66, the relative viability ([4]; first compound 0.000632 µM) was 0.67 and the relative viability ([4]; first compound 0.002 µM) was 0.51. For the same compound, the relative viability ([4]; first compound 0.006325 µM) was 0.369, the relative viability ([4]; first compound 0.02 µM) was 0.277 and the relative viability ([5]; first compound 0.0002 µM) was 0.533. The relative viability ([5]; first compound 0.000632 µM) was 0.591, the relative viability ([5]; first compound 0.002 µM) was 0.269 and the relative viability ([5]; first compound 0.006325 µM) was 0.294. The relative viability ([5]; first compound 0.02 µM) was 0.16, the relative viability ([6]; first compound 0.0002 µM) was 0.598 and the relative viability ([6]; first compound 0.000632 µM) was 0.589. It also gave a relative viability ([6]; first compound 0.002 µM) of 0.441, a relative viability ([6]; first compound 0.006325 µM) of 0.415 and a relative viability ([7]; first compound 0.0002 µM) of 0.394. It also gave a relative viability ([7]; first compound 0.000632 µM) of 0.528, a relative viability ([7]; first compound 0.002 µM) of 0.343 and a relative viability ([7]; first compound 0.006325 µM) of 0.414. The relative viability ([7]; first compound 0.02 µM) was 0.264, the relative viability ([8]; first compound 0.0002 µM) was 0.696 and the relative viability ([8]; first compound 0.000632 µM) was 0.603. For the same compound, the relative viability ([8]; first compound 0.002 µM) was 0.352, the relative viability ([8]; first compound 0.006325 µM) was 0.182 and the relative viability ([8]; first compound 0.02 µM) was 0.118. For the same compound, the relative viability ([9]; first compound 0.0002 µM) was 0.208, the relative viability ([9]; first compound 0.000632 µM) was 0.186 and the relative viability ([9]; first compound 0.002 µM) was 0.159. The relative viability ([9]; first compound 0.006325 µM) was 0.171, the relative viability ([9]; first compound 0.02 µM) was 0.153 and the relative viability ([10]; first compound 0.0002 µM) was 0.293. The relative viability ([10]; first compound 0.002 µM) was 0.29, the relative viability ([10]; first compound 0.006325 µM) was 0.247 and the relative viability ([10]; first compound 0.02 µM) was 0.202. The relative viability ([11]; first compound 0.0002 µM) was 0.715, the relative viability ([11]; first compound 0.000632 µM) was 0.79 and the relative viability ([11]; first compound 0.002 µM) was 0.738. The relative viability ([11]; first compound 0.006325 µM) was 0.699, the relative viability ([11]; first compound 0.02 µM) was 0.541 and the relative viability ([12]; first compound 0.0002 µM) was 0.473. It also gave a relative viability ([12]; first compound 0.000632 µM) of 0.301, a relative viability ([12]; first compound 0.006325 µM) of 0.188 and a relative viability ([12]; first compound 0.02 µM) of 0.115. For the same compound, the relative viability ([13]; first compound 0.0002 µM) was 0.282, the relative viability ([13]; first compound 0.000632 µM) was 0.275 and the relative viability ([13]; first compound 0.002 µM) was 0.227. For the same compound, the relative viability ([13]; first compound 0.006325 µM) was 0.181, the relative viability ([13]; first compound 0.02 µM) was 0.15 and the relative viability ([14]; first compound 0.0002 µM) was 0.456. It also gave a relative viability ([14]; first compound 0.000632 µM) of 0.147, a relative viability ([14]; first compound 0.002 µM) of 0.159 and a relative viability ([14]; first compound 0.006325 µM) of 0.161. It also gave a relative viability ([14]; first compound 0.02 µM) of 0.112, a relative viability ([15]; first compound 0.0002 µM) of 0.435 and a relative viability ([15]; first compound 0.000632 µM) of 0.382. It also gave a relative viability ([15]; first compound 0.002 µM) of 0.329, a relative viability ([15]; first compound 0.006325 µM) of 0.282 and a relative viability ([15]; first compound 0.02 µM) of 0.249. For the same compound, the relative viability ([16]; first compound 0.0002 µM) was 0.804, the relative viability ([16]; first compound 0.000632 µM) was 0.587 and the relative viability ([16]; first compound 0.002 µM) was 0.238. The relative viability ([16]; first compound 0.006325 µM) was 0.168, the relative viability ([16]; first compound 0.02 µM) was 0.107 and the relative viability ([17]; first compound 0.0002 µM) was 0.645. For the same compound, the relative viability ([17]; first compound 0.000632 µM) was 0.238, the relative viability ([17]; first compound 0.002 µM) was 0.0745 and the relative viability ([17]; first compound 0.006325 µM) was 0.0177. The relative viability ([17]; first compound 0.02 µM) was 0.0139, the relative viability ([18]; first compound 0.0002 µM) was 0.805 and the relative viability ([18]; first compound 0.000632 µM) was 0.767. The relative viability ([18]; first compound 0.002 µM) was 0.505, the relative viability ([18]; first compound 0.006325 µM) was 0.372 and the relative viability ([18]; first compound 0.02 µM) was 0.241. It also gave a relative viability ([19]; first compound 0.0002 µM) of 0.804, a relative viability ([19]; first compound 0.000632 µM) of 0.615 and a relative viability ([19]; first compound 0.002 µM) of 0.415. The relative viability ([19]; first compound 0.006325 µM) was 0.544, the relative viability ([19]; first compound 0.02 µM) was 0.361 and the relative viability ([20]; first compound 0.0002 µM) was 0.759. For the same compound, the relative viability ([20]; first compound 0.000632 µM) was 0.549, the relative viability ([20]; first compound 0.002 µM) was 0.121 and the relative viability ([20]; first compound 0.006325 µM) was 0.0548. It also gave a relative viability ([20]; first compound 0.02 µM) of 0.0206, a relative viability ([21]; first compound 0.0002 µM) of 0.677 and a relative viability ([21]; first compound 0.000632 µM) of 0.326. It also gave a relative viability ([21]; first compound 0.002 µM) of 0.199, a relative viability ([21]; first compound 0.02 µM) of 0.124 and a relative viability ([22]; first compound 0.0002 µM) of 0.298. For the same compound, the relative viability ([22]; first compound 0.000632 µM) was 0.245, the relative viability ([22]; first compound 0.002 µM) was 0.177 and the relative viability ([22]; first compound 0.006325 µM) was 0.18. It also gave a relative viability ([22]; first compound 0.02 µM) of 0.109.
